Experimental data from patent publication US6028077A, “Crambescidin compounds” (priority 1998, dated 2000).
Read-outs that look alike come from different tables or passages of the source.

Tests used:
[1] = system: L1210 murine leukemia cells; assay: Cytotoxicity (parallel assay) against L1210 murine leukemia cells; format: cell-based; settings: for cytotoxic activity compared with other compounds / activity relative to crambescidin 816 (1): L1210 cells; for inhibition at 0.1 µg/mL / inhibition at 0.25 µg/mL / inhibition at 0.5 µg/mL / inhibition at 1 µg/mL: Mus musculus; for inhibition at 0.1 µg/mL: L1210, 0.1 μg/mL; for inhibition at 0.25 µg/mL: L1210, 0.25 μg/mL; for inhibition at 0.5 µg/mL: L1210, 0.5 μg/mL; for inhibition at 1 µg/mL: L1210, 1.0 μg/mL
From the text: However, crambescidins 674 (9) and 687 (10) without a spermidine derivative unit are less than 5 times as active than 1.
Cytotoxicities against L1210 Cells for Compounds 1, 6-12,

[2] = system: Rhodotorula glutinis; assay: Antimicrobial assay against Rhodotorula glutinis; format: cell-based
[3] = system: L1210 cells; settings: cited from earlier work
[4] = system: P388 cells; settings: cited from earlier work
[5] = system: KB cells; settings: cited from earlier work
[6] = system: Candida albicans; settings: cited from earlier work
[7] = system: HSV; settings: cited from earlier work
[8] = virus not named; cited from earlier work
[9] = system: Herpes simple-x, Type I virus (HSV-I); settings: cited from earlier work
[10] = system: Ca^2+ channel; settings: cited from earlier work
[11] = times as active than 1, without a spermidine derivative unit

SMILES: CCC1C=CCCC2(CC3CCC4C(C(=O)OCCCCCCCCCCCCCCCC(=O)N(CCCN)CCCCN)C5(CCCC(C)O5)NC(=N2)N34)O1 (centres unmarked) [Compound 6, ptilomycalin A]
- cytotoxic activity compared with other compounds [1]: slightly more active than 1
- inhibition at 0.1 µg/mL [1]: 20%
- inhibition at 0.25 µg/mL [1]: 60%
- inhibition at 0.5 µg/mL [1]: 99%
- inhibition at 1 µg/mL [1]: 100%
- antimicrobial activity at 2 μg/well [2]: active
- growth inhibition / cytotoxicity, L1210 cells [3]: shown cytotoxicity
- cytotoxicity, P388 cells [4]: shown cytotoxicity
- cytotoxicity, KB cells [5]: shown cytotoxicity
- antifungal activity against Candida albicans [6]: antifungal activity
- antiviral activity (HSV) [7]: antiviral activity (HSV)

SMILES: CCC1C=CCCC2(CC3CCC4C(C(=O)OCCCCCCCCCCCCCCCC(=O)O)C5(CCCC(C)O5)NC(=N2)N34)O1 (centres unmarked) [Compound 11, Crambescidin 657]
- Inhibition (%) ([1]; 0.1 μg/mL): 93%
- cytotoxic activity compared with other compounds ([1]; listed as crambescidin 657 (11)): most cytotoxic compound in the test
- inhibition at 1 µg/mL [1]: 100%

SMILES: CCC1C=CCCC2(CC3CCC4(O)C(C(=O)OCCCCCCCCCCCCCCCC(=O)OC)C5(CCCC(C)O5)NC(=N2)N34)O1 (centres unmarked) [Compound 10, Crambescidin 687]
- activity relative to crambescidin 816 (1) [1, 11]: less than 5 times
- inhibition at 0.1 µg/mL [1]: 0%
- inhibition at 0.25 µg/mL [1]: 0%
- inhibition at 0.5 µg/mL [1]: 0%
- inhibition at 1 µg/mL [1]: 100%

SMILES: CCC1C=CCCC2(CC3CCC4(O)C(C(=O)OCCCCCCCCCCCCCCCC(=O)N(CCCN)CC(Cl)CCN)C5(CCCC(C)O5)NC(=N2)N34)O1 (centres unmarked) [Compound 7, Crambescidin 834]
- activity relative to crambescidin 816 (1) ([1]; times more active than 1): about 5 times
- inhibition at 0.1 µg/mL [1]: 90%
- inhibition at 0.25 µg/mL [1]: 95%
- inhibition at 0.5 µg/mL [1]: 95%
- inhibition at 1 µg/mL [1]: 100%

SMILES: CCC1C=CCCC2(CC3CCC4C(C(=O)OCCCCCCCCCCCCCCCC(=O)N(CCCN)CC(O)CCN)C5(CCCC(C)O5)NC(=N2)N34)O1 (centres unmarked) [Compound 5, 13, 14, 15-Isocrambescidin 800]
- growth inhibition / cytotoxicity, L1210 cells [3]: substantially less cytotoxic
- antiviral activity [8]: no observed antiviral activity

SMILES: CCC1C=CCCC2(CC3CCC4(O)C(C(=O)OCCCCCCCCCCCCCCCC(=O)N(CCCN)CC(O)CCN)C5(CCCC(C)O5)NC(=N2)N34)O1 (centres unmarked) [Compound 1, crambescidin 816, reference compound]
- inhibition at 0.1 µg/mL [1]: 0%
- inhibition at 0.25 µg/mL [1]: 70%
- inhibition at 0.5 µg/mL [1]: 97%
- inhibition at 1 µg/mL [1]: 100%
- antiviral activity against HSV-I [9]: exhibited antiviral activity
- Ca^2+ channel blocker [10]: potent calcium channel blocker
- Ca^2+ channel blocker ([10]; listed as crambescidin 816 (1)): strong Ca^2+ channel blocker

SMILES: CCC1C=CCCC2(CC3CCC4C(C(=O)OCCCCCCCCCCCCCCCC(=O)O)C5(CCCC(C)O5)NC(=N2)N34)O1 (centres unmarked) [Compound 12, 13,14,15-Isocrambescidin 657]
- Inhibition (%) ([1]; 0.1 μg/mL): 0%
- Inhibition (%) ([1]; 0.25 μg/mL): 0%
- Inhibition (%) ([1]; 0.5 μg/mL): 0%
- Inhibition (%) ([1]; 1.0 μg/mL): 100%
- inhibition at 5 μg/mL ([1]; 5 μg/mL): no inhibition
- cytotoxic activity compared with other compounds ([1]; listed as 13, 14, 15-Isocrambescidin 657 (12)): substantially less active

SMILES: CCC1C=CCCC2(CC3CCC4C(C(=O)OCCCCCCCCCCCCCCCC(=O)OC)C5(CCCC(C)O5)NC(=N2)N34)O1 (centres unmarked) [Methyl 11]
- inhibition at 0.1 µg/mL [1]: 0%
- inhibition at 0.25 µg/mL [1]: 0%
- inhibition at 0.5 µg/mL [1]: 0%
- inhibition at 1 µg/mL [1]: 0%

SMILES: CCC1C=CCCC2(CC3CCC4(O)C(C(=O)OCCCCCCCCCCCCCCCC(=O)O)C5(CCCC(C)O5)NC(=N2)N34)O1 (centres unmarked) [Compound 9, Crambescidin 673]
- activity relative to crambescidin 816 (1) [1, 11]: less than 5 times
- inhibition at 0.1 µg/mL [1]: 0%
- inhibition at 0.25 µg/mL [1]: 0%
- inhibition at 0.5 µg/mL [1]: 0%
- inhibition at 1 µg/mL [1]: 100%

SMILES: CCC1C=CCCC2(CC3CCC4C(C(=O)OCCCCCCCCCCCCCCCC(=O)N(CCCN)CC(Cl)CCN)C5(CCCC(C)O5)NC(=N2)N34)O1 (centres unmarked) [Compound 8, Crambescidin 818]
- activity relative to crambescidin 816 (1) ([1]; times more active than 1): about 5 times
- inhibition at 0.1 µg/mL [1]: 90%
- inhibition at 0.25 µg/mL [1]: 95%
- inhibition at 0.5 µg/mL [1]: 95%
- inhibition at 1 µg/mL [1]: 100%
